Ends that are not written are not given here.
Legend:
[1] = Plasma decay of 125I-labelled synthetic peptide after ear vein injection; assay type: in vivo, rabbit; details: for additional fall of plasma level over the next three hours: from one hour to four hours after injection
Procedure: Each labelled synthetic peptide preparation (containing, for example, 150 to 400 or more μCi of ^125 I-labelled peptide) in column elution buffer was injected into the marginal ear vein of the ballooned and healing New Zealand white rabbits or WHHL rabbits. Serial blood samples were obtained from the opposite ear during the ensuing 0-24 hours and were analyzed for radioactivity. The labelled peptide concentrations in the blood samples that were withdrawn over the first 10 minutes after injection were extrapolated to zero time to determine the time zero radioactivity in the calculation of average plasma radioactivity. […] Peptides SP15a, SP17, SP19a, SP21a, SP28, SP34a, and SP30 were cleared rapidly from the plasma with half-lives of about one minute or less; after one hour, the plasma levels were less than 10% of the injected dose and fell by an additional 1% over the next three hours. Peptides SP15a, SP17, SP21a, SP28, SP34a, and SP30 leveled off to a plasma level of 3-6%; peptide SP19a cleared more quickly and leveled off to a concentration of 0.3% (at four hours).

[2] = tested on: anti-SP-4 antiserum; test: ELISA immunological cross-reactivity with anti-SP-4 antiserum; assay type: binding; details: ELISA plates coated with peptide or LDL, rabbit polyclonal anti-SP-4 antiserum
Procedure: To produce anti-synthetic peptide antisera, purified synthetic peptide was dissolved in PBS, pH 7.4 at a concentration of 1 mg/ml. The peptide solution was mixed with an equal volume of complete Freund's adjuvant and vortexed thoroughly until a thick emulsion was produced. New Zealand White rabbits (Millbrook Farms, Amherst, Mass.) were injected with a total of 0.5 mg synthetic peptide administered subcutaneously in the four dorsal quadrants. The rabbits were given a boost (injected at the same sites) with 0.5 mg peptide emulsified in incomplete Freund's adjuvant 2-3 weeks later. Eight to ten days after the first boost, the animals were given a second, identical boost and were bled of 30 ml 8 to 10 days later.
To test for immunological cross-reactivity microtiter plates (Immulon II Dynatech Labs, Chantilly, Va.) were coated with the purified synthetic peptide or LDL by an overnight incubation at 4° C. with 100 ng peptide per well in 50 mM carbonate, pH 9.6, and blocked for nonspecific binding with an additional overnight incubation with phosphate-buffered saline, pH 7.4 (PBS), 1% bovine serum albumin (BSA). Control wells were coated with BSA alone. After washing twice with PBS, the wells were filled with serial dilutions (1:10 to 1:100,000 made in PBS, 3% BSA) of a rabbit polyclonal antibody generated against the synthetic peptide(s) and incubated for 45 minutes at room temperature. Following thorough washing (3× with PBS, 0.1% BSA), the wells were filled with a 1:2000 dilution of goat anti-rabbit IgG-horseradish peroxidase conjugate (Atlantic Antibodies, Scarborough, Me.). After a final wash, the wells were filled with 3,3'-5,5'-tetramethybenzidine (TMB) microwell peroxidase substrate (Kirkegaard and Perry Labs, Gaithersburg, Md.) and read at 650 nm every two minutes on an ELISA-5 automated plate reader (Physica, New York, N.Y.). Results (see, e.g., FIGS. 4 and 5) are expressed as the initial velocity of substrate conversion (change in OD650 /hr), which is determined by a linear regression of 15 data points per well. Each data point represents the average of three measured data points from the same plate, run at the same time.

Substance	additional fall of plasma level over the next three hours [1]	binding of anti-SP-4 antiserum to coated peptide or LDL [2]	plasma concentration at which peptide leveled off ([1]; at four hours)
Ac-YAKFRETLEDTRDRMY-NH2 [SP-15a, CH3 CONH-Tyr-Ala-Lys-Phe-Arg-Glu-Thr-Leu-Glu-Asp-Thr-Arg-Asp-Arg-Met-Tyr-CONH2]	1%	–	–
Ac-YKLALEAARLLADAEGAK-NH2 [SP-6A, CH3 CONH-Tyr-Lys-Leu-Ala-Leu-Glu-Ala-Ala-Arg-Leu-Leu-Ala-Asp-Ala-Glu-Gly-Ala-Lys-CONH2]	–	bind	–
Ac-YKLALEAARLLANAEGAK-NH2 [SP-8A, CH3 CONH-Tyr-Lys-Leu-Ala-Leu-Glu-Ala-Ala-Arg-Leu-Leu-Ala-Asn-Ala-Glu-Gly-Ala-Lys-CONH2]	–	bind	–
Ac-YRALVDTEFKVKQEAGAK-NH2 [SP-21a, CH3 CONH-Tyr-Arg-Ala-Leu-Val-Asp-Thr-Glu-Phe-Lys-Val-Lys-Gln-Glu-Ala-Gly-Ala-Lys-CONH2]	1%	–	–
Ac-YRALVDTLK-NH2 [SP-14A, CH3 CONH-Tyr-Arg-Ala-Leu-Val-Asp-Thr-Leu-Lys-CONH2]	–	bind	–
Ac-YRALVDTLKFVTEQAKGA-NH2 [SP-19a, CH3 CONH-Tyr-Arg-Ala-Leu-Val-Asp-Thr-Leu-Lys-Phe-Val-Thr-Glu-Gln-Ala-Lys-Gly-Ala-CONH2]	1%	–	0.3%
Ac-YRALVDTLKFVTQAEGAK-NH2 [SP-4A, CH3 CONH-Tyr-Arg-Ala-Leu-Val-Asp-Thr-Leu-Lys-Phe-Val-Thr-Gln-Ala-Glu-Gly-Ala-Lys-CONH2]	–	bind	–
Ac-YRALVDYLKFVTQL-NH2 [SP-12A, CH3 CONH-Tyr-Arg-Ala-Leu-Val-Asp-Tyr-Leu-Lys-Phe-Val-Thr-Gln-Leu-CONH2]	–	bind	–
Ac-YVLDEFREKLNEELEALKQK-NH2 [SP-34a]	1%	–	–
YAALDLNAVANKIADFEL-NH2 [SP-17, H2 N-Tyr-Ala-Ala-Leu-Asp-Leu-Asn-Ala-Val-Ala-Asn-Lys-Ile-Ala-Asp-Phe-Glu-Leu- CONH2]	1%	–	–
YKLALEAARLLADAEGAK-NH2 [SP-6, H2 N-Tyr-Lys-Leu-Ala-Leu-Glu-Ala-Ala-Arg-Leu-Leu-Ala-Asp-Ala-Glu-Gly-Ala-Lys- CONH2]	–	bind	–
YKLALEAARLLANAEGAK-NH2 [SP-8, H2 N-Tyr-Lys-Leu-Ala-Leu-Glu-Ala-Ala-Arg-Leu-Leu-Ala-Asn-Ala-Glu-Gly-Ala-Lys- CONH2]	–	bind	–
YRALVDTLKFVTQAEGAK-NH2 [SP-4, NH2 -Tyr-Arg-Ala-Leu-Val-Asp-Thr-Leu-Lys-Phe-Val-Thr-Gln-Ala-Glu-Gly-Ala-Lys-CONH2]	–	bind	–
YVGVAPGVGVAPGVGVAPG [SP-28, H2 N-Tyr-Val-Gly-Val-Ala-Pro-Gly-Val-Gly-Val-Ala-Pro-Gly-Val-Gly-Val-Ala-Pro- Gly-OH]	1%	–	–
YVPGVGVPGVGVPGVGVPGVG-NH2 [SP-30, H2 N-Tyr-Val-Pro-Gly-Val-Gly-Val-Pro-Gly-Val-Gly-Val-Pro-Gly-Val-Gly-Val-Pro- Gly-Val-Gly-CONH2]	1%	–	–

From patent US5972890A, “Synthetic peptides for arterial imaging” (New England Deaconess Hospital Corporation, priority 1995, dated 1999)
